From US8946124B2, “Substituted 3-(biphenyl-3-yl)-8,8-difluoro-4-hydroxy-1-azaspiro[4.5]dec-3-en-2-ones for therapy and halogen-substituted spirocyclic ketoenols” (Bayer Intellectual Property GmbH, priority 2011, dated 2015)

How the values were obtained:
[1] = Pharmacokinetic parameters in the rat (i.v. and intragastric); format: in vivo; details: intragastric vs. i.v.
Method: For this, the test substances were applied in dissolved form both for intravenous, and for intragastric application, wherein compatible solubilizers such as PEG400 and/or ethanol were used in a compatible amount.
The test substances were applied at a dose of 0.1-1 mg/kg. Administration was as a bolus injection in the male rat and as an infusion in the female dog (15 min). At various time points after the bolus injection, and before and after the 15-minute infusion, blood samples of about 100-150 μl were removed via a catheter either from the jugular vein (rat) or from the saphenous vein (dog). Lithium-heparin was added as anticoagulant to the blood samples and they were stored in a refrigerator until required for further processing. After centrifugation of the samples for 15 min at 3000 rpm, an aliquot of 100 μl was taken from the supernatant (plasma) and was precipitated by adding 400 μl of cold ACN or methanol (absolute). The precipitated samples were frozen-out at […] overnight, then centrifuged again at 3000 rpm for 15 min, before 150 μl of the clear supernatant were removed to determine the concentration. The analysis was effected by means of an Agilent 1200 HPLC system with connected LCMS/MS detection. […]

Myzus persicae = assay: Myzus test (MYZUPE spray treatment); format: in vivo; details: 500 g/ha, after 6 days
[2] = Maximum tolerated dose (MTD) in the mouse; format: in vivo; details: female nude mice, 21 days
Method: The MTD was defined as the highest dose which could be administered without any animal dying during the treatment phase, and without any body weight loss of more than 10% compared to the initial weight.
Example 1-1 was administered to female nude mice (NMRI nu/nu):
(§1) Administration route: per os
• (Solutol HS15: polyoxyethylene ester of 12-hydroxystearic acid) Administration volume:10 ml/kg Protocol: see Table 7
The treatment phase was followed by an observation phase of 21 days.

[3] = system: PC-3 prostate carcinoma xenograft; assay: In-vivo efficacy in the PC3 xenograft model in the mouse; details: 17 days, 2 administrations per day; for T/C: final tumor weight
Method: as §1
Administration volume: 10 ml/kg

Tetranychus urticae = assay: Tetranychus test, OP-resistant (TETRUR spray treatment); format: in vivo; details: 100 g/ha, after 6 days
Method: (§2) Solvents: 78.0 parts by weight of acetone
After 6 days, the effect in % is determined.
Tetranychus Test, OP-Resistant (TETRUR Spray Treatment)

Spodoptera frugiperda = Spodoptera frugiperda test (SPODFR spray treatment); format: in vivo; details: 500 g/ha, after 7 days
Source text: as §2

Phaedon cochleariae = assay: Phaedon test (PHAECO spray treatment); details: 500 g/ha, after 7 days
[4] = Octanol/water distribution coefficient (log P/D), isocratic HPLC method; format: physicochemical; details: pH 7.4; mean (range, n); read-out: logP/D pH 7.4
Source text: The distribution coefficient octanol/water P or D is a key parameter for estimating membrane penetration and permeability. It is defined as the ratio of the equilibrium concentrations of a substance in the two-phase system octanol/water.
[formula] P=partition D=distribution c(octanol)=concentration of the substance in the octanol phase c(water)=concentration of the substance in the aqueous phase
It is usually stated in form of the decadic logarithm (log P or log D).
log P describes the distribution behavior of a substance exclusively present in its neutral form. logD describes the distribution behavior of a substance at a certain pH; depending on the ionisation constant pKa of the substance, some of the substance may be present in ionic form, and some in neutral form.
The log P/D of the active compounds was determined using an isocratic HPLC method (HPLC=high performance liquid chromatography) (literature: OECD Guideline for Testing of Chemicals No. 117). The method is based on the correlation of the HPLC retention time of the test substance to that of reference substances with known distribution coefficients.
The test substance was employed as a 10 mM solution in DMSO (DMSO=dimethyl sulfoxide). 10 μl of this solution were made up to 100 μl with a methanol/water mixture in a ratio of 7+3.
The nine reference substances were dissolved individually in methanol. 100 μl each of the stock solutions were added to an HPLC vial and mixed with 300 μl of water.
A formamide solution was used to determine the hold-up time. To this end, 7 mg of formamide were dissolved in 10 ml of methanol. 100 μl of this stock solution were mixed with 500 μl of methanol and 200 μl of water.
All solutions were chromatographed using a flow rate of 1.00 ml/min.
Injection Protocol: formamide, references, test substance 1, test substance 2, . . . , formamide, references.
Evaluation of the retention times was carried out in a diode array detector (DAD) at 200-400 nm. Via the molecular mass, the identity of the test substance was checked using the downstream mass spectrometer.
The HPLC run was evaluated using the Waters software Masslynx 4.1.
The log P/D values were calculated using the software “POW Determination” (proprietary development).

[5] = 80 mg/kg day 1-3, 70 mg/kg from day 4 onwards, per os

Question: For `Cc1ccc(-c2ccc(Cl)c(F)c2)cc1C1=C(O)C2(CCC(F)(F)CC2)NC1=O` [Example 1-1, 3-(4′-Chloro-3′-fluoro-4-methylbiphenyl-3-yl)-8,8-difluoro-4-hydroxy-1-azaspiro[4.5]dec-3-en-2-one], which F [1] is on record?
Answer: Its F is 95%.

Question: And the “effect in % (aphids killed)” value (Myzus persicae)?
Answer: Its value is 90%.

Question: What about the Deaths ([2]; 12.5 mg/kg per os, 1 administration per day) of the same molecule?
Answer: Its Deaths is 0 of 4.

Question: What about the Deaths ([2]; 25 mg/kg per os, 1 administration per day) of the same molecule?
Answer: The Deaths was 0 of 4.

Question: And the Deaths ([2]; 50 mg/kg per os, 1 administration per day)?
Answer: The Deaths was 0 of 4.

Question: And the Deaths ([2]; 50 mg/kg per os, 2 administrations per day)?
Answer: The Deaths was 0 of 4.

Question: And the Deaths ([2]; 75 mg/kg per os, 1 administration per day)?
Answer: The Deaths was 0 of 4.

Question: What about the Deaths ([2]; 100 mg/kg per os, 1 administration per day) of the same molecule?
Answer: Its Deaths is 0 of 4.

Question: What about the Deaths ([3]; 40 mg/kg per os) of the same molecule?
Answer: The Deaths was 0 of 9.

Question: And the Deaths [3, 5]?
Answer: Its Deaths is 0 of 9.

Question: And the T/C ([3]; 40 mg/kg per os)?
Answer: The T/C was 0.26.

Question: What about the T/C [3, 5] of the same molecule?
Answer: The T/C was 0.26.

Question: What about the “effect in % (spider mites killed)” value (Tetranychus urticae) of the same molecule?
Answer: The value was 90%.

Question: And the “effect in % (caterpillars killed)” value (Spodoptera frugiperda)?
Answer: Its value is 100%.

Question: And the “effect in % (beetle larvae killed)” value (Phaedon cochleariae)?
Answer: Its value is 100%.

Question: What about the chromatographic logD [4] of the same molecule?
Answer: The chromatographic logD was 1.9.
